This note sets out measurements from patent publication US20240368192A1, “Nitrogen-Containing Heterocyclic Compound, and Preparation Method Therefor, Intermediate Thereof, and Application Thereof” (Shanghai Allist Pharmaceuticals Co., Ltd., priority 2021, published 2024).

Counter-ions that a name gives are not always drawn.

Sequence of Ba/F3 KRAS-G12D cells (P01116 whole entry G12D): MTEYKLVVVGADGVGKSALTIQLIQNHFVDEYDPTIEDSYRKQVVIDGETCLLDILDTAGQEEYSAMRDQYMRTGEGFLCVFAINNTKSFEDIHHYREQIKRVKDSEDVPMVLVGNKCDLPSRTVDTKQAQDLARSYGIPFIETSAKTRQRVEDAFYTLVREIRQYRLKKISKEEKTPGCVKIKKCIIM
Sequence of Ba/F3 KRAS-G12V cells (P01116 whole entry G12V): as the sequence (P01116 whole entry G12D) above, with D12V counted along it

The target of the first assay is Ba/F3 KRAS-G12V cells (Homo sapiens, UniProt P01116, G12V, cells depend on it). Description: Proliferation inhibitory activity on Ba/F3 KRAS-G12V stably transfected cell line (CellTiter-Glo, 72 hours). In kind it is cell-based, mouse. Particulars: read-out: Ba/F3 KRAS-G12V IC50. The text has this:
(§1) Test Example 1: Proliferation Inhibitory Activity on Ba/F3 KRAS-G12D, Ba/F3 KRAS-G12V Stably Transfected Cell Lines and AGS Tumor Cell Lines Containing KRAS G12D Mutations
(§2) To determine the proliferation inhibitory activity of the compounds in vitro on mouse pro-B cells Ba/F3 (Ba/F3 KRAS-G12D and Ba/F3 KRAS-G12V cells stably expressing KRAS G12D/V mutant proteins) and gastric cancer AGS cells expressing KRAS G12D mutant protein.
(§3) Cell sources. Ba/F3 KRAS-G12D and Ba/F3 KRAS-G12V were purchased from Kyinno Biotech (Beijing) Co., Ltd, Cat. No.: KC-1259 and KC-1261, respectively; AGS was purchased from Shanghai Bioleaf Biotech Co., Ltd.
(§4) Cells in the logarithmic growth phase were seeded in a 96-well plate (8000, 8000, 4000 cells/well, 90 μL/well for Ba/F3 KRAS-G12D, Ba/F3 KRAS-G12V, and AGS cells respectively), incubated at 37° C. for 1 day with 5% CO2, and then a gradient dilution of the test compound was added thereto (compounds 1 to 28 and comparative compounds). The details were as follows, the compound stock solution (10 mM) previously dissolved in DMSO was diluted to 10 gradient concentrations at a fold ratio (4 fold) and diluted to 10 fold of the target concentration in another 96-well plate with culture medium, and then 10 μL/well of the compound solution was added to the 96-well plate seeded with cells to reach the target concentration (10000, 2500, 625, 156, 39, 10, 2.5, 0.6, 0.15, 0.04 nM). Each concentration was provided with 3 duplicate wells and a blank control. After continued incubation at 37° C. and 5% CO2 for 72 hours, 50 μL of CellTiter-Glo*2.0 reagent (luciferase ATP bioluminescence detection reagent, purchased from Promega, Cat. No.: G9243) was added to each well, shaken for 2 minutes, and incubated at room temperature for 8 minutes, and then fluorescence luminescence intensity was detected (light collection time was 100 ms). The inhibitory rate of compounds with various concentrations on cell proliferation was calculated. Cell proliferation inhibition rate (%)=[(luminous intensitycontrol group containing cell culture medium for 72 hour−luminous intensitycompound group for 72 hour)/(luminous intensitycontrol group containing cell culture medium for 72 hours−luminous intensitycontrol group without cell culture medium for 72 hour)]×100%. GraphPad Prism 8.3 software was used to analyze the data, and nonlinear S-curve regression was used to fit the data to obtain a dose-effect curve, from which the IC50 value was calculated.
Consider `Cc1cc(N)nc(-c2ncc3c(N4C[C@@H](N)C[C@H](O)C4)nc(OC[C@@]45CCCN4C[C@H](F)C5)nc3c2F)c1C(F)(F)F` [Compound 1, (3S,5S)-5-Amino-1-(7-(6-amino-4-methyl-3-(trifluoromethyl)pyridin-2-yl)-8-fluoro-2-(((2R,7aS)-2-fluorohexahydro-1H-pyrrolizin-7a-yl)methoxy)pyrido[4,3-d]pyrimidin-4-yl)piperidin-3-ol bis(2,2,2-trifluoroacetate)], for which the GI50 is 5 to 10 µM. With `Cc1cc(N)nc(-c2ncc3c(N4CCC[C@H](N)C4)nc(OC[C@@]45CCCN4C[C@H](F)C5)nc3c2F)c1C(F)(F)F` [Compound 2, 6-(4-((S)-3-Aminopiperidin-1-yl)-8-fluoro-2-(((2R,7aS)-2-fluorohexahydro-1H-pyrrolizin-7a-yl)methoxy)pyrido[4,3-d]pyrimidin-7-yl)-4-methyl-5-(trifluoromethyl)pyridin-2-amine tetrakis(2,2,2-trifluoroacetate)], the GI50 was in the range of 5 to 10 µM. As for `N[C@H]1CCCN(c2nc(OC[C@@]34CCCN3C[C@H](F)C4)nc3c(F)c(-c4cc(O)cc5ccccc45)ncc23)C1` [Compound 3, 4-(4-((S)-3-Aminopiperidin-1-yl)-8-fluoro-2-(((2R,7aS)-2-fluorohexahydro-1H-pyrrolizin-7a-yl)methoxy)pyrido[4,3-d]pyrimidin-7-yl)naphthalen-2-ol], the GI50 was in the range of 5 to 10 µM. With `N[C@H]1C[C@H](O)CN(c2nc(OC[C@@]34CCCN3C[C@H](F)C4)nc3c(F)c(-c4cc(O)cc5ccccc45)ncc23)C1` [Compound 4, (3S,5S)-5-Amino-1-(8-fluoro-2-(((2R,7aS)-2-fluorohexahydro-1H-pyrrolizin-7a-yl)methoxy)-7-(3-hydroxynaphthalen-1-yl)pyrido[4,3-d]pyrimidin-4-yl)piperidin-3-ol], the GI50 lay within 5 to 10 µM.

`N[C@@H]1CCCN(c2nc(OC[C@@]34CCCN3C[C@H](F)C4)nc3c(F)c(-c4cc(O)cc5ccccc45)ncc23)C1` [Compound 5, 4-(4-((R)-3-Aminopiperidin-1-yl)-8-fluoro-2-(((2R,7aS)-2-fluorohexahydro-1H-pyrrolizin-7a-yl)methoxy)pyrido[4,3-d]pyrimidin-7-yl)naphthalen-2-ol]: the GI50 fell in the range of 5 to 10 µM.

Consider `C#Cc1c(F)ccc2cc(O)cc(-c3ncc4c(N5CCC[C@H](N)C5)nc(OC[C@@]56CCCN5C[C@H](F)C6)nc4c3F)c12` [Compound 7, 4-(4-((S)-3-Aminopiperidin-1-yl)-8-fluoro-2-(((2R,7aS)-2-fluorohexahydro-1H-pyrrolizin-7a-yl)methoxy)pyrido[4,3-d]pyrimidin-7-yl)-5-ethynyl-6-fluoronaphthalen-2-ol], for which the GI50 fell in the range of 5 to 10 µM. Same read-out and setting: with `C#Cc1c(F)ccc2cc(O)cc(-c3ncc4c(N5C[C@@H](N)C[C@H](O)C5)nc(OC[C@@]56CCCN5C[C@H](F)C6)nc4c3F)c12` [Compound 8, (3S,5S)-5-Amino-1-(7-(8-ethynyl-7-fluoro-3-hydroxynaphthalen-1-yl)-8-fluoro-2-(((2R,7aS)-2-fluorohexahydro-1H-pyrrolizin-7a-yl)methoxy)pyrido[4,3-d]pyrimidin-4-yl)piperidin-3-ol] the figure was 5 to 10 µM. For the compound `C#Cc1c(F)ccc2cc(O)cc(-c3ncc4c(N5C[C@@H]6C[C@]6(N)C5)nc(OC[C@@]56CCCN5C[C@H](F)C6)nc4c3F)c12` [Compound 9, 4-(4-((1R,5S)-1-Amino-3-azabicyclo[3.1.0]hexan-3-yl)-8-fluoro-2-(((2R,7aS)-2-fluorohexahydro-1H-pyrrolizin-7a-yl)methoxy)pyrido[4,3-d]pyrimidin-7-yl)-5-ethynyl-6-fluoronaphthalen-2-ol], the GI50 lay within 5 to 10 µM. As for `C#Cc1c(F)ccc2cc(O)cc(-c3ncc4c(N5C[C@@H]6[C@@H](N)[C@@H]6C5)nc(OC[C@@]56CCCN5C[C@H](F)C6)nc4c3F)c12` [Compound 11, 4-(4-((1R,5S,6R)-6-Amino-3-azabicyclo[3.1.0]hexan-3-yl)-8-fluoro-2-(((2R,7aS)-2-fluorohexahydro-1H-pyrrolizin-7a-yl)methoxy)pyrido[4,3-d]pyrimidin-7-yl)-5-ethynyl-6-fluoronaphthalen-2-ol dihydrochloride], the GI50 lay within 5 to 10 µM. The same measure, in the same setting: with `C#Cc1c(F)ccc2cc(O)cc(-c3ncc4c(N5C[C@@H]6[C@H](N)[C@@H]6C5)nc(OC[C@@]56CCCN5C[C@H](F)C6)nc4c3F)c12` [Compound 12, 4-(4-((1R,5S,6S)-6-Amino-3-azabicyclo[3.1.0]hexan-3-yl)-8-fluoro-2-(((2R,7aS)-2-fluorohexahydro-1H-pyrrolizin-7a-yl)methoxy)pyrido[4,3-d]pyrimidin-7-yl)-5-ethynyl-6-fluoronaphthalen-2-ol bis(2,2,2-trifluoroacetate)] the figure was 5 to 10 µM; with `C#Cc1c(F)ccc2cc(O)cc(-c3ncc4c(N5C[C@H](N)C[C@H](O)C5)nc(OC[C@@]56CCCN5C[C@H](F)C6)nc4c3F)c12` [Compound 13, (3S,5R)-5-Amino-1-(7-(8-ethynyl-7-fluoro-3-hydroxynaphthalen-1-yl)-8-fluoro-2-(((2R,7aS)-2-fluorohexahydro-1H-pyrrolizin-7a-yl)methoxy)pyrido[4,3-d]pyrimidin-4-yl)piperidin-3-ol], 5 to 10 µM; with `C#Cc1c(F)ccc2cc(O)cc(-c3ncc4c(N5C[C@H](N)C[C@@H](O)C5)nc(OC[C@@]56CCCN5C[C@H](F)C6)nc4c3F)c12` [Compound 14, (3R,5R)-5-Amino-1-(7-(8-ethynyl-7-fluoro-3-hydroxynaphthalen-1-yl)-8-fluoro-2-(((2R,7aS)-2-fluorohexahydro-1H-pyrrolizin-7a-yl)methoxy)pyrido[4,3-d]pyrimidin-4-yl)piperidin-3-ol bis(2,2,2-trifluoroacetate)], 5 to 10 µM. Regarding `C#Cc1c(F)ccc2cc(O)cc(-c3ncc4c(N5CC[C@H](N)C5)nc(OC[C@@]56CCCN5C[C@H](F)C6)nc4c3F)c12` [Compound 15, 4-(4-((S)-3-Aminopyrrolidin-1-yl)-8-fluoro-2-(((2R,7aS)-2-fluorohexahydro-1H-pyrrolizin-7a-yl)methoxy)pyrido[4,3-d]pyrimidin-7-yl)-5-ethynyl-6-fluoronaphthalen-2-ol], the GI50 is 5 to 10 µM. `C#Cc1c(F)ccc2cc(O)cc(-c3ncc4c(N5C[C@@H](N)C[C@@H](O)C5)nc(OC[C@@]56CCCN5C[C@H](F)C6)nc4c3F)c12` [Compound 16, (3R,5S)-5-Amino-1-(7-(8-ethynyl-7-fluoro-3-hydroxynaphthalen-1-yl)-8-fluoro-2-(((2R,7aS)-2-fluorohexahydro-1H-pyrrolizin-7a-yl)methoxy)pyrido[4,3-d]pyrimidin-4-yl)piperidin-3-ol bis(2,2,2-trifluoroacetate)]: the GI50 was in the range of 5 to 10 µM. Regarding `Cc1cc(N)nc(-c2nc(N)c3c(N4C[C@H]5CC[C@@H](C4)N5)nc(OC[C@@]45CCCN4C[C@H](F)C5)nc3c2F)c1C(F)(F)F` [Compound 19, 7-(6-Amino-4-methyl-3-(trifluoromethyl)pyridin-2-yl)-4-((1R,5S)-3,8-diazabicyclo[3.2.1]octan-3-yl)-8-fluoro-2-(((2R,7aS)-2-fluorohexahydro-1H-pyrrolizin-7a-yl)methoxy)pyrido[4,3-d]pyrimidin-5-amine], the GI50 is 5 to 10 µM.

Another assay concerns the target Ba/F3 KRAS-G12D cells (Homo sapiens, UniProt P01116, G12D, cells depend on it). Description: Proliferation inhibitory activity on Ba/F3 KRAS-G12D stably transfected cell line (CellTiter-Glo, 72 hours). In kind it is cell-based, mouse. Conditions: read-out: Ba/F3 KRAS-G12D IC50.
Source text: as §1, §2, §3, §4
Background: In ATP-based viability assays light output follows the ATP content of the culture.
For `C#Cc1c(F)ccc2cc(O)cc(-c3ncc4c(N5CCC[C@H](N)C5)nc(OC[C@@]56CCCN5C[C@H](F)C6)nc4c3F)c12` [Compound 7, 4-(4-((S)-3-Aminopiperidin-1-yl)-8-fluoro-2-(((2R,7aS)-2-fluorohexahydro-1H-pyrrolizin-7a-yl)methoxy)pyrido[4,3-d]pyrimidin-7-yl)-5-ethynyl-6-fluoronaphthalen-2-ol], the GI50 fell in the range of 5 to 10 µM. As for `C#Cc1c(F)ccc2cc(O)cc(-c3ncc4c(N5C[C@@H]6C[C@]6(N)C5)nc(OC[C@@]56CCCN5C[C@H](F)C6)nc4c3F)c12` [Compound 9, 4-(4-((1R,5S)-1-Amino-3-azabicyclo[3.1.0]hexan-3-yl)-8-fluoro-2-(((2R,7aS)-2-fluorohexahydro-1H-pyrrolizin-7a-yl)methoxy)pyrido[4,3-d]pyrimidin-7-yl)-5-ethynyl-6-fluoronaphthalen-2-ol], the GI50 is 5 to 10 µM. `C#Cc1c(F)ccc2cc(O)cc(-c3ncc4c(N5CC[C@H](N)C5)nc(OC[C@@]56CCCN5C[C@H](F)C6)nc4c3F)c12` [Compound 15, 4-(4-((S)-3-Aminopyrrolidin-1-yl)-8-fluoro-2-(((2R,7aS)-2-fluorohexahydro-1H-pyrrolizin-7a-yl)methoxy)pyrido[4,3-d]pyrimidin-7-yl)-5-ethynyl-6-fluoronaphthalen-2-ol]: the GI50 was in the range of 5 to 10 µM.
